Like-named read-outs stand apart in the source and are kept apart here.
Assay: physchem
Conditions: for solubility at 24 h: 20 °C, organic solvent or mixture, thermodynamic from solid
Description: The practical solubility of the transition metal complexes was determined at ambient temperature in the inert atmosphere of the dry box.
1 mg of solid complex was contacted with 0.5 ml of benzene-D6 in an NMR-tube (5 mm external diameter) and gently swirled.

SMILES	solubility at 24 h	further results
CC1=[N+](c2cc(C(C)(C)C)cc(C(C)(C)C)c2)[Fe]2([Cl])([Cl])[N+](c3c(C)cc(C)cc3C)=C(C)c3cccc1[n+]32 [Example 2, 2-[1-(2,4,6-trimethylphenylimino)ethyl]-6-[1-(3,5-di-tert-butylphenylimino)ethyl]pyridine iron[II] chloride complex, reference compound]	< 1 mg/mL	
CCCCCCCCCCCCCCCCCCCCOc1c(-c2ccccc2)cc([N+]2=C(C)c3cccc4[n+]3[Fe]2([Cl])([Cl])[N+](c2c(C)cc(C)cc2C)=C4C)cc1-c1ccccc1 [Example 3, 2-[1-(2,4,6-trimethylphenylimino)ethyl]-6-[1-(4-eicosanoxy-3,5-diphenylphenylimino)ethyl]pyridine iron[II] dichloride complex]	~50 mg/mL	
CCCCCCCCCCCCCCCCCCCCOc1c(-c2ccccc2)cc([N+]2=C(C)c3cccc4[n+]3[Co]2([Cl])([Cl])[N+](c2c(C)cc(C)cc2C)=C4C)cc1-c1ccccc1 [Example 4, 2-[1-(2,4,6-trimethylphenylimino)ethyl]-6-[1-(4-eicosanoxy-3,5-diphenylphenylimino)ethyl]pyridine cobalt[II] dichloride complex]	50 mg/mL	
CCCCCCCCCCCCCCCCCCCCOc1c(-c2ccccc2)cc(N=C(C)c2cccc(C(C)=Nc3c(C)cc(C)cc3C)n2)cc1-c1ccccc1.FC(F)(F)c1cc([B-](c2cc(C(F)(F)F)cc(C(F)(F)F)c2)(c2cc(C(F)(F)F)cc(C(F)(F)F)c2)c2cc(C(F)(F)F)cc(C(F)(F)F)c2)cc(C(F)(F)F)c1.[Cl][Co+] [Example 5, 2-[1-(2,4,6-trimethylphenylimino)ethyl]-6-[1-(4-eicosanoxy-3,5-diphenylphenylimino)ethyl]pyridine cobalt[II] chloride tetrakis[3,5-bis[trifluoromethyl)phenyl]borate]		solubility in toluene or benzene-D6 (at 20° C.): ca. 10 mg/ml
CCCCCCCCCCCCCCCCCCCCOc1c(-c2ccccc2)cc(N=C(C)c2cccc(C(C)=Nc3c(C)cc(C)cc3C)n2)cc1-c1ccccc1.[Cl-].[Cl-].[Cl-].[Cr+3] [Example 6, 2-[1-(2,4,6-trimethylphenylimino)ethyl]-6-[1-(4-eicosanoxy-3,5-diphenylphenylimino)ethyl]pyridine chromium[III] trichloride complex]		solubility in toluene or benzene-D6 (at 20° C.): ca. 1 mg/ml
CCCCCCCCCCCCCCCCCCCCOc1c(-c2ccccc2)cc([N+]2=C(C)c3cccc4[n+]3[Fe]2([Cl])([Cl])[N+](c2cc(-c3ccccc3)c(OCCCCCCCCCCCCCCCCCCCC)c(-c3ccccc3)c2)=C4C)cc1-c1ccccc1 [Example 7, 2,6-bis[1-(4-eicosanoxy-3,5-diphenylphenylimino)ethyl]pyridine iron [II] dichloride complex]	~100 mg/mL	
CCCCCCCCCCCCCCCCCCCCOc1c(-c2ccccc2)cc([N+]2=C(C)c3cccc4[n+]3[Co]2([Cl])([Cl])[N+](c2cc(-c3ccccc3)c(OCCCCCCCCCCCCCCCCCCCC)c(-c3ccccc3)c2)=C4C)cc1-c1ccccc1 [Example 8, 2,6-bis[1-(4-eicosanoxy-3,5-diphenylphenylimino)ethyl]pyridine cobalt[II] dichloride complex]	~100 mg/mL	
CCCCCCCCCCCCCCCCCCCCOc1c(-c2ccccc2)cc(N=C(C)c2cccc(C(C)=Nc3cc(-c4ccccc4)c(OCCCCCCCCCCCCCCCCCCCC)c(-c4ccccc4)c3)n2)cc1-c1ccccc1.[Cl-].[Cl-].[Cl-].[Cr+3] [Example 9, 2,6-bis[1-(4-eicosanoxy-3,5-diphenylphenylimino)ethyl]pyridine chromium[III] trichloride complex]		solubility in toluene or benzene-D6: ca. 50 mg/ml
CCCCCCCCCCCCCCCCCCCCOc1c(-c2ccccc2)cc([N+]2=C(C)c3cccc4[n+]3[Co]2([Cl])([Cl])[N+](c2ccccc2C(C)(C)C)=C4C)cc1-c1ccccc1 [Example 10, 2-[1-(2-tert-butylphenylimino)ethyl]-6-[1-(4-eicosanoxy-3,5-diphenylphenylimino)ethyl]pyridine cobalt[II] chloride complex]	~50 mg/mL	
CCCCCCCCCCCCCCCCCCCCOc1ccc([N+]2=C(C)c3cccc4[n+]3[Fe]2([Cl])([Cl])[N+](c2ccc(OCCCCCCCCCCCCCCCCCCCC)cc2C)=C4C)c(C)c1 [Example 11, 2,6-bis[1-(4-eicosanoxy-2-methylphenylimino)ethyl]pyridine iron[II] chloride complex, reference compound]	< 1 mg/mL	
CCCCCCCCCCCCCCCCCCCCOc1cc(C)c([N+]2=C(C)c3cccc4[n+]3[Fe]2([Cl])([Cl])[N+](c2cc(C(C)C)c(OCCCCCCCCCCCCCCCCCCCC)cc2C)=C4C)cc1C(C)C [Example 12, 2,6-bis[1-(2-methyl-4-eicosanoxy-5-isopropylphenylimino)ethyl]pyridine iron (II) dichloride]	~10 mg/mL	solubility in C6D6 (in words): soluble
CCCOc1c(-c2ccccc2)cc([N+]2=C(C)c3cccc4[n+]3[Co]2([Cl])([Cl])[N+](c2c(C)cc(C)cc2C)=C4C)cc1-c1ccccc1 [Example 13, 2-[1-(2,4,6-trimethylphenylimino)ethyl]-6-[1-(4-propoxy-3,5-diphenylphenylimino)ethyl]pyridine cobalt[II] chloride complex, reference compound]	< 1 mg/mL	
CC1=[N+](c2cc(-c3ccccc3)c(O)c(-c3ccccc3)c2)[Fe]2([Cl])([Cl])[N+](c3c(C)cc(C)cc3C)=C(C)c3cccc1[n+]32 [Example 14, 2-[1-(2,4,6-trimethylphenylimino)ethyl]-6-[1-(4-hydroxy-3,5-diphenylphenylimino)ethyl]pyridine iron (II) dichloride, reference compound]	< 1 mg/mL	
